This passage reports TGI and GI50 results from PubChem BioAssay (NCI).

Test systems include A498 renal; CAKI-1 renal; HOP-62 NSCLC; HT29 colon; K-562 leukemia; M14 melanoma; OVCAR-8 ovarian; RPMI-8226 leukemia; SF-539 CNS; SK-OV-3 ovarian.
Common to all, as to assay: NCI tumour cell line growth inhibition, 48 h

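1) Cells in 96-well plates. 2) Compound, 48 h, 5 concentrations. 3) Linear interpolation between surrounding doses. 4) Unreached endpoint = highest concentration. GI50 is the concentration that inhibits growth by half. TGI: concentration producing complete growth inhibition.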 Some results are limits rather than exact numbers.

For the compound `CCCCn1/c(=N/C(=S)N(C)C)ss/c1=N\C(=S)N(C)C`, the TGI with A498 renal, with CAKI-1 renal, in the experiment with HOP-62 NSCLC, with HT29 colon, in the experiment on K-562 leukemia and in the experiment with M14 melanoma was > 100 µM throughout. Moreover, the TGI in the experiment on OVCAR-8 ovarian, with RPMI-8226 leukemia, in the experiment with SF-539 CNS and in the experiment on SK-OV-3 ovarian was > 100 µM in each case.

As to `CCOC(=O)c1cnc2[nH]ccn2c1=O`, the TGI in the experiment on A498 renal, with CAKI-1 renal, with HOP-62 NSCLC, with HT29 colon, in the experiment with K-562 leukemia and with M14 melanoma was > 10 µM throughout. In addition, the TGI with OVCAR-8 ovarian, in the experiment with RPMI-8226 leukemia, with SF-539 CNS and in the experiment on SK-OV-3 ovarian was > 10 µM each time.

Regarding `CN(C)S(=O)(=O)Nc1ccccn1`, the TGI with A498 renal, with CAKI-1 renal, in the experiment on HOP-62 NSCLC, in the experiment on HT29 colon, in the experiment with K-562 leukemia and with M14 melanoma was > 100 µM each time. The TGI in the experiment on OVCAR-8 ovarian, in the experiment on RPMI-8226 leukemia, in the experiment with SF-539 CNS and with SK-OV-3 ovarian was > 100 µM throughout.

Consider `CN1CN(c2ccccc2)C2(CCN(CCCC3(c4cccs4)OCCO3)CC2)C1=O`, for which the TGI in the experiment on A498 renal, in the experiment with CAKI-1 renal, in the experiment on HOP-62 NSCLC, in the experiment on HT29 colon, with K-562 leukemia and with M14 melanoma was > 100 µM throughout. Also, the TGI in the experiment with OVCAR-8 ovarian, in the experiment with RPMI-8226 leukemia, in the experiment on SF-539 CNS and in the experiment with SK-OV-3 ovarian was > 100 µM each time.

Regarding `N#Cc1c(O)c2c(c(O)c1C#N)C(=O)c1ccccc1C2=O`, the GI50 with A498 renal was 1.39 µM; in the experiment with CAKI-1 renal, 2.65 µM; with HOP-62 NSCLC it was 3.44 µM; in the experiment with HT29 colon it was 0.563 µM; with K-562 leukemia, 1.9 µM; in the experiment on M14 melanoma, 0.41 µM. Moreover, the GI50 is 2.33 µM with OVCAR-8 ovarian, 1.42 µM with RPMI-8226 leukemia, 2.6 µM in the experiment on SF-539 CNS and 3.99 µM with SK-OV-3 ovarian. In addition, the TGI turned out to be 16.4 µM in the experiment with A498 renal; 8.3 µM in the experiment with CAKI-1 renal; 10.5 µM with HOP-62 NSCLC; 3.96 µM in the experiment on HT29 colon; 6.63 µM with K-562 leukemia; 1.92 µM with M14 melanoma. The TGI in the experiment with OVCAR-8 ovarian is 6.48 µM; with RPMI-8226 leukemia, 4.67 µM; in the experiment with SF-539 CNS, 5.53 µM; with SK-OV-3 ovarian, > 34.9 µM.

Take `Cc1c(C(=O)/C=C/c2cccc3ccccc23)[n+](=O)c2ccccc2n1[O-]`: the TGI was 30.8 µM with A498 renal; 21.8 µM in the experiment on CAKI-1 renal; 29.6 µM in the experiment on HOP-62 NSCLC; 24.8 µM with HT29 colon; 36.5 µM in the experiment with K-562 leukemia; 26.9 µM with M14 melanoma. Besides, the TGI with OVCAR-8 ovarian is 24.9 µM; in the experiment with RPMI-8226 leukemia, 41.8 µM; in the experiment on SF-539 CNS it was 23.8 µM; with SK-OV-3 ovarian, 32.6 µM.

With `Fc1ccc(-c2nn(-c3ccccc3)cc2-c2nc3ccccc3o2)cc1`, the GI50 in the experiment with A498 renal is 2.97 µM; with CAKI-1 renal it was 3.13 µM; in the experiment on HOP-62 NSCLC, 4.95 µM; in the experiment with HT29 colon, 9.46 µM; in the experiment with K-562 leukemia, 1.25 µM; in the experiment with M14 melanoma, 3.91 µM. For the same compound, the GI50 in the experiment on OVCAR-8 ovarian is 3.61 µM; with RPMI-8226 leukemia, 1.05 µM; with SF-539 CNS, 8.88 µM; in the experiment on SK-OV-3 ovarian it was 8.46 µM. Besides, the TGI with A498 renal is 56.7 µM; in the experiment on CAKI-1 renal, > 100 µM; in the experiment on HOP-62 NSCLC, 33.4 µM; in the experiment on HT29 colon, 30.4 µM; with K-562 leukemia, > 100 µM; in the experiment with M14 melanoma, 15.1 µM. Also, the TGI in the experiment on OVCAR-8 ovarian was > 100 µM; in the experiment with RPMI-8226 leukemia it was 9.3 µM; in the experiment with SF-539 CNS, 28.7 µM; in the experiment on SK-OV-3 ovarian it was > 100 µM.

Consider `O=C1CC[C@H]2CNC(=O)C[C@H]2C1`, for which the TGI in the experiment with A498 renal, in the experiment on CAKI-1 renal, with HOP-62 NSCLC, with HT29 colon, in the experiment with K-562 leukemia and with M14 melanoma was > 100 µM throughout. Moreover, the TGI in the experiment with OVCAR-8 ovarian, in the experiment on RPMI-8226 leukemia, with SF-539 CNS and in the experiment on SK-OV-3 ovarian was > 100 µM in each case.

Turning to `Cc1cc(C)nc(NS(=O)(=O)c2ccc(NC(=O)c3cccc4c(=O)c5ccccc5[nH]c34)cc2)n1`, the TGI in the experiment on A498 renal was 34.9 µM; with CAKI-1 renal, > 100 µM; with HOP-62 NSCLC it was 56.7 µM; in the experiment with HT29 colon it was 43.9 µM; in the experiment with K-562 leukemia it was 90.3 µM; in the experiment on M14 melanoma, 40.7 µM. Moreover, the TGI came to 41.1 µM in the experiment with OVCAR-8 ovarian, 83 µM with RPMI-8226 leukemia, 35.4 µM in the experiment with SF-539 CNS and 17.1 µM with SK-OV-3 ovarian.

Take `O=C1c2ccccc2-c2c1c1cc3c(cc1c(=O)n2CCCCl)OCO3`: the GI50 in the experiment with A498 renal was 59.8 µM; in the experiment with CAKI-1 renal, 20.4 µM; in the experiment on HOP-62 NSCLC, 12.3 µM; in the experiment on HT29 colon, > 100 µM; with K-562 leukemia it was 99.8 µM; with M14 melanoma it was 65.3 µM. Besides, the GI50 in the experiment on OVCAR-8 ovarian was 22.6 µM; in the experiment with RPMI-8226 leukemia, 78.6 µM; in the experiment with SF-539 CNS, 51.4 µM; in the experiment on SK-OV-3 ovarian, > 100 µM. Besides, the TGI in the experiment with A498 renal was > 100 µM; with CAKI-1 renal, 82.4 µM; in the experiment on HOP-62 NSCLC, 28.6 µM; with HT29 colon, > 100 µM; with K-562 leukemia, > 100 µM; with M14 melanoma, > 100 µM. The TGI with OVCAR-8 ovarian, in the experiment with RPMI-8226 leukemia, in the experiment with SF-539 CNS and in the experiment on SK-OV-3 ovarian was > 100 µM throughout.

With `C1CN2N3CCCC23C1` (stereo not given), the TGI with A498 renal, in the experiment with CAKI-1 renal, with HOP-62 NSCLC, in the experiment with HT29 colon, in the experiment with K-562 leukemia and in the experiment on M14 melanoma was > 100 µM in each case. The TGI with OVCAR-8 ovarian, with RPMI-8226 leukemia, with SF-539 CNS and in the experiment on SK-OV-3 ovarian was > 100 µM in each case.

As to `Cc1cccc(C(C)(C)C)c1NC(=O)C(=O)Cc1nc2ccccc2s1`, the TGI in the experiment with A498 renal, with CAKI-1 renal, in the experiment on HOP-62 NSCLC, with HT29 colon, in the experiment on K-562 leukemia and in the experiment on M14 melanoma was > 100 µM in each case. Further, the TGI with OVCAR-8 ovarian, in the experiment on RPMI-8226 leukemia, in the experiment with SF-539 CNS and in the experiment with SK-OV-3 ovarian was > 100 µM in each case.
